# Experimental data reported in paper PMC7433010, “Exploration of multi‐target effects of 3‐benzoyl‐5‐hydroxychromen‐2‐one in Alzheimer’s disease cell and mouse models” (Aging Cell, 2020).
# What was measured:
# NQO1 = assay: Western blot of NQO1 in ∆K280 TauRD‐DsRed SH‐SY5Y cells; assay type: cell-based, human; conditions: 1 µM; induced untreated 79%, uninduced 100%
# Procedure: Total proteins from ∆K280 TauRD-DsRed SH-SY5Y cells were obtained using a RIPA buffer containing 50 mM Tris-HCl (pH8.0), 150 mM NaCl, 2 mM EDTA (pH8.0), 50 mM NaF, 0.1% SDS, 0.5% sodium deoxycholate, 1% NP40, and a protease inhibitor cocktail (Sigma-Aldrich). After sonication and sitting on ice for 20 min, the lysates were centrifuged at 14,000 × g for 30 min at 4°C. Protein concentrations were determined using a protein assay kit (Bio-Rad, Hercules, CA, USA), with albumin as a standard. Total proteins (20 µg) were electrophoresed on 10% or 12% SDS-polyacrylamide gel and transferred onto polyvinylidene difluoride (PVDF) membranes (Sigma-Aldrich) through reverse electrophoresis. […] Subsequently, immune complexes were detected using a horseradish peroxidase-conjugated goat anti-mouse or goat anti-rabbit IgG antibody (1:5000; GeneTex, Irvive, CA, USA) and a chemiluminescent substrate (Millipore).
# [1] = test system: STZ‐induced hyperglycemic 3 × Tg‐AD mice; assay: Morris water maze task in STZ‐treated 3 × Tg‐AD mice; assay type: in vivo, mouse; conditions: for Morris water maze latency to hidden platform: 40 mg/kg i.p.
# Procedure: (§1) Mice harboring APPSwe, PS1M146V, and […] transgenes (3×Tg-AD) (Oddo et al., 2003) were purchased from the Jackson Laboratory (004807; Bar Harbor, ME, USA). Six-month-old male homozygous 3×Tg-AD mice were group housed at 20–25°C and 60% relative humidity under a daily 12-h light/12-h dark cycle, with assess to food and water ad libitum. Mice were randomly divided into 3 groups: – streptozocin (STZ), STZ, and STZ/LM-031 (n = 10 per group). STZ-induced hyperglycemia was used to accelerate the development of AD phenotype (Chen et al., 2014). Briefly, the mice were fasted for 12 h each day prior to intraperitoneal (i.p.) injection of STZ ([…]; Sigma-Aldrich) or vehicle (0.1 M sodium citrate pH4.5) for 4 times (days 2, 3, 9, and 10) (Chen et al., 2019). Mouse body weight was measured and blood glucose level was measured on days 1, 8, 15, 22, and 29 using a blood glucose meter (Bioland Technology, Taipei, Taiwan). LM-031 (40 mg/kg) or vehicle (DMSO:Cremophor EL:0.9% saline = 1:2:7) was intraperitoneally injected every day for 22 days from days 15 to 36. All animal procedures were ethically approved by the Institutional Animal Care and Use Committee of National Taiwan Normal University, Taipei, Taiwan (Permit Number: 103002) and were conducted in compliance with the ARRIVE (Animal Research: Reporting In Vivo Experiments) guidelines.
# The water maze apparatus consisted of a circular pool with diameter 100 cm and height 76 cm, a submerged platform 1 cm below the water surface, four types of cues providing distal landmarks in the testing room, and a video camera suspended 250 cm above the center of the pool and connected to a video tracking system. The pool was filled up with water (24–26°C, 35 cm high) rendered opaque by the addition of nontoxic white paint. Mice relied on external cues to find the hidden platform in opaque water. One day prior to spatial training, all mice underwent pretraining to examine animals’ swimming ability and to acclimatize them to the pool. For pretraining (day 29), each mouse was placed in the pool to swim for 60 sec. After three trials, a platform was placed in the center of the pool and the mouse was allowed to remain there for 20 sec. For training (days 30–33), the platform was placed in a quadrant and each mouse received four trials per day for 4 consecutive days, with a cue signaling the platform position. The submerged platform remained there and entry points changed semi-randomly throughout all trials. The trial ended either when the mouse climbed onto the platform or when 60 seconds had elapsed. At the end of each trial the mouse was placed on the platform and faced the cue for 20 sec, learning where the platform was. […] All the data were analyzed by PhenoTracker.
# NeuN = assay: Immunohistochemistry of NeuN in hippocampus of STZ‐treated 3 × Tg‐AD mice; assay type: in vivo, mouse; conditions: – STZ 100%
# Procedure: as §1
# Mouse brains were removed, postfixed in 4% paraformaldehyde overnight, and cryopreserved in 30% sucrose solution at 4°C. Series of coronal brain sections (30 µm) were cut in a cryostat (Leica RM2125 RTS, Leica, Wetzlar, Germany). Heat-induced antigen retrieval for immunohistochemistry (IHC) was performed using antigen retrieval buffer (pH9.0, Thermo Fisher Scientific) to break methylene bridges and expose antigenic sites, allowing antibodies to bind. […] The sections were then washed and detected by using the UltraVision™ Quanto detection system containing horseradish peroxidase and chromogenic diaminobenzidine substrate (Thermo Fisher Scientific). […]
smiles,measurement,setting,value
"O=C(c1ccccc1)c1cc2c(O)cccc2oc1=O [LM‐031, 3‐benzoyl‐5‐hydroxychromen‐2‐one]",NQO1 protein level,NQO1,94%
same,Morris water maze duration in target quadrant,"[1]; probe trials 2 and 48 hr (days 34 and 36), STZ 17 s, – STZ 26 s",24 s
same,Morris water maze latency to hidden platform,"[1]; testing on day 34, STZ 39 s, – STZ 21 s",26 s
same,Morris water maze latency to hidden platform,"[1]; training day 3, STZ 43 s, – STZ 31 s",31 s
same,Morris water maze latency to hidden platform,"[1]; training day 4, STZ 40 s, – STZ 26 s",30 s
same,"NeuN level, CA1",NeuN; STZ 89%,96%
same,"NeuN level, dentate gyrus (DG)",NeuN; STZ 90%,97%
same,"NeuN level, CA3",NeuN; STZ 91%,95%
